In one experiment the target is T1, human V2 receptor (Homo sapiens, UniProt P30518).
T1 construct: expressed in transfected cells; host or cells: CHO K1 (ATCC) line expressing firefly luciferase under a CRE-responsive promoter
Kind of experiment: Cellular in vitro assay for vasopressin receptor activity, V2 cell line (CRE-luciferase). In kind it is cell-based. The following applies: CHO cell line transfected with human V2 receptor; agonist [Arg8]-vasopressin at EC50 concentration, 3 hours; read-out: IC50hV2. How it is done:
(§1) B-1. Cellular In Vitro Assay for Determining Vasopressin Receptor Activity
(§2) The identification of agonists and antagonists of the V1a and V2 vasopressin receptors from humans, rats and dogs as well as the quantification of the activity of the compounds of the invention is carried out using recombinant cell lines. These cell lines originally derive from a hamster's ovary epithelial cell (Chinese Hamster Ovary, CHO K1, ATCC: American Type Culture Collection, Manassas, Va. 20108, USA). The test cell lines constitutively express the human, rat or dog V1a or V2 receptors. In case of the Gαq-coupled V1a receptors, cells are also stably transfected with a modified form of the calcium-sensitive photoproteins aequorin (human and rat V1a) or obelin (dog V1a), which, after reconstitution with the cofactor coelenterazine, emit light when there are increases in free calcium concentrations [Rizzuto R, Simpson A W, Brini M, Pozzan T, Nature 358, 325-327 (1992); Illarionov B A, Bondar V S, Illarionova V A, Vysotski E S, Gene 153 (2), 273-274 (1995)]. The resulting vasopressin receptor cells react to stimulation of the recombinantly expressed V1a receptors by intracellular release of calcium ions, which can be quantified by the resulting photoprotein luminescence. The Gs-coupled V2 receptors are stably transfected into cell lines expressing the gene for firefly luciferase under control of a CRE-responsible promoter. Activation of V2 receptors induces the activation of the CRE-responsive promoter via cAMP increase, thereby inducing the expression of firefly luciferase. The light emitted by photoproteins of V1a cell lines as well as the light emitted by firefly luciferase of V2 cell lines corresponds to the activation or inhibition of the respective vasopressin receptor. The bioluminescence of the cell lines is detected using a suitable luminometer [Milligan G, Marshall F, Rees S, Trends in Pharmacological Sciences 17, 235-237 (1996)].
Vasopressin V2 Receptor Cell Lines:
On the day before the assay, the cells are plated out in culture medium (DMEM/F12, 2% FCS, 2 mM glutamine, 10 mM HEPES) in 384-well microtiter plates and kept in a cell incubator (96% humidity, 5% v/v CO2, 37° C.). On the day of the assay, test compounds in various concentrations and the agonist [Arg^8]-vasopressin at EC50 concentration are added together to the wells, and plates are incubated for 3 hours in a cell incubator. Upon addition of the cell lysis reagent Triton™ and the substrate luciferin, luminescence of firefly luciferase is measured in a luminometer.
(§3) Table 1A below lists individual IC50 values for the compounds of the invention (including racemic mixtures as well as separated enantiomers) that were obtained from cell lines transfected with the human V1a or V2 receptor: […]

For another experiment, the target named is T2, human V1a receptor (Homo sapiens, UniProt P37288).
T2 construct: expressed in transfected cells; host or cells: CHO K1 (ATCC), also stably transfected with a modified aequorin
T2 sequence (P37288 whole entry): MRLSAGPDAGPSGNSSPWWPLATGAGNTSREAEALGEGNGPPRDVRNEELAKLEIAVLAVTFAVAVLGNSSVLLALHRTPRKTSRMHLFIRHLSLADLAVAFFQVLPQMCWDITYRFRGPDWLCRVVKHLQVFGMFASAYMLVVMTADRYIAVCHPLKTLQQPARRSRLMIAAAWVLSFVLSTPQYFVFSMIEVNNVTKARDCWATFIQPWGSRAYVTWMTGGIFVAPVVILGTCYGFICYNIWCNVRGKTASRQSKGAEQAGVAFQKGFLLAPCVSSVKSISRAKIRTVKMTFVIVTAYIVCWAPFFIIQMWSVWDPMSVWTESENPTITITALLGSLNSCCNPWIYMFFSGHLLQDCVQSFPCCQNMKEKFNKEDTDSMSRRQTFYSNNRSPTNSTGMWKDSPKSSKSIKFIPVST
In words: Cellular in vitro assay for vasopressin receptor activity, V1a cell line (aequorin luminescence). In kind it is cell-based. The following applies: for IC50: CHO cell line transfected with human V1a receptor, agonist [Arg8]-vasopressin at EC50 concentration, read-out: IC50hV1a; for ratio IC50 hV2/hV1a: ratio of the IC50 on human V2 to the IC50 on human V1a. As for the experimental part:
as §1, §2
Vasopressin V1a Receptor Cell Lines:
On the day before the assay, the cells are plated out in culture medium (DMEM/F12, 2% FCS, 2 mM glutamine, 10 mM HEPES, 5 μg/ml coelenterazine) in 384-well microtiter plates and kept in a cell incubator (96% humidity, 5% v/v CO2, 37° C.). On the day of the assay, test compounds in various concentrations are placed for 10 minutes in the wells of the microtiter plate before the agonist [Arg^8]-vasopressin at EC50 concentration is added. The resulting light signal is measured immediately in a luminometer.
as §3

The values below come from patent publication US10525041B2, “Fluoroalkyl-substituted aryltriazole derivatives and uses thereof” (BAYER PHARMA AKTIENGESELLSCHAFT, priority 2016, dated 2020).

T1 sequence (P30518 whole entry): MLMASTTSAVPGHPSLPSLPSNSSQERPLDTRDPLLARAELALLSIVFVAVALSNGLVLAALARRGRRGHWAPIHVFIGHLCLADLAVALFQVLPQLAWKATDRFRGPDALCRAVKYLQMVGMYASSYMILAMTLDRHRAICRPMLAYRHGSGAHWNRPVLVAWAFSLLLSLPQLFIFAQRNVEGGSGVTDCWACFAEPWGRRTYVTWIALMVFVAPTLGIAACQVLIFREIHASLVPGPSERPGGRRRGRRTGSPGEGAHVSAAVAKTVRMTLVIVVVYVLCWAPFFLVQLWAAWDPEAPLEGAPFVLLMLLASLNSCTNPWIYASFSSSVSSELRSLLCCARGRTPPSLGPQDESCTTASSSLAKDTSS

As to `Cc1cccc(C)c1-n1nc(Cn2nc(-c3ccc(Cl)cc3)n(C[C@H](O)C(F)(F)F)c2=O)nc1C(C)F` (mixture of isomers) [Example 46, 5-(4-Chlorophenyl)-2-({1-(2,6-dimethylphenyl)-5-[1-fluoroethyl]-1H-1,2,4-triazol-3-yl}methyl)-4-[(2S)-3,3,3-trifluoro-2-hydroxypropyl]-2,4-dihydro-3H-1,2,4-triazol-3-one], the IC50 on human V2 receptor came out at 1.74 nM. In addition, on human V1a receptor, the IC50 stood at 3.2 nM and the “ratio IC50 hV2/hV1a” value came out at 0.5.
The like results for `Cc1cccc(C)c1-n1nc(Cn2nc(-c3ccc(Cl)cc3)n(C[C@H](O)C(F)(F)F)c2=O)nc1C(C)(F)F` [Example 71, 5-(4-Chlorophenyl)-2-{[5-(1,1-difluoroethyl)-1-(2,6-dimethylphenyl)-1H-1,2,4-triazol-3-yl]methyl}-4-[(2S)-3,3,3-trifluoro-2-hydroxypropyl]-2,4-dihydro-3H-1,2,4-triazol-3-one] were, in that order, 4.27 nM, 5.3 nM and 0.8.
With `CC(F)c1nc(Cn2nc(-c3ccc(Cl)cc3)n(C[C@H](O)C(F)(F)F)c2=O)nn1-c1cnccc1C(F)(F)F` (single isomer, unassigned) [Example 8], the IC50 on human V2 receptor worked out at 19.8 nM; at human V1a receptor it was 1.25 nM. In addition, the “ratio IC50 hV2/hV1a” value on human V1a receptor is listed as 15.8.
The like results for `CC(F)c1nc(Cn2nc(-c3ccc(Cl)cc3)n(C[C@H](O)C(F)(F)F)c2=O)nn1-c1ccccc1C#N` (mixture of isomers) [Example 38, 2-{3-({3-(4-Chlorophenyl)-5-oxo-4-[(2S)-3,3,3-trifluoro-2-hydroxypropyl]-4,5-dihydro-1H-1,2,4-triazol-1-yl}methyl)-5-[1-fluoroethyl]-1H-1,2,4-triazol-1-yl}benzonitrile] were, in that order, 165 nM, 82 nM and 2.0.
The like results for `CC(F)c1nc(Cn2nc(-c3ccc(Cl)cc3)n(C[C@H](O)C(F)(F)F)c2=O)nn1-c1ccccc1Cl` (mixture of isomers) [Example 1, 5-(4-Chlorophenyl)-2-({1-(2-chlorophenyl)-5-[1-fluoroethyl]-1H-1,2,4-triazol-3-yl}methyl)-4-[(2S)-3,3,3-trifluoro-2-hydroxypropyl]-2,4-dihydro-3H-1,2,4-triazol-3-one] were, in that order, 0.7 nM, 0.35 nM and 2.0.
The like results for `CC(F)c1nc(Cn2nc(-c3ccc(Cl)cc3)n(C[C@H](O)C(F)(F)F)c2=O)nn1-c1ccccc1[N+](=O)[O-]` (mixture of isomers) [Example 37, 5-(4-Chlorophenyl)-2-({5-[1-fluoroethyl]-1-(2-nitrophenyl)-1H-1,2,4-triazol-3-yl}methyl)-4-[(2S)-3,3,3-trifluoro-2-hydroxypropyl]-2,4-dihydro-3H-1,2,4-triazol-3-one] were, in that order, 10 nM, 3.35 nM and 3.0.
Consider `Cc1ccccc1-n1nc(Cn2nc(-c3ccc(Cl)cc3)n(C[C@H](O)C(F)(F)F)c2=O)nc1C(C)(F)F` [Example 64, 5-(4-Chlorophenyl)-2-{[5-(1,1-difluoroethyl)-1-(2-methylphenyl)-1H-1,2,4-triazol-3-yl]methyl}-4-[(2S)-3,3,3-trifluoro-2-hydroxypropyl]-2,4-dihydro-3H-1,2,4-triazol-3-one], for which, at human V2 receptor, the IC50 stood at 1.7 nM. At human V1a receptor, the IC50 turned out to be 1.06 nM and the “ratio IC50 hV2/hV1a” value is 1.6.
On to `Cc1ccccc1-n1nc(Cn2nc(-c3ccc(Cl)cc3)n(C[C@H](O)C(F)(F)F)c2=O)nc1C(C)F` (mixture of isomers) [Example 34, 5-(4-Chlorophenyl)-2-({5-[1-fluoroethyl]-1-(2-methylphenyl)-1H-1,2,4-triazol-3-yl}methyl)-4-[(2S)-3,3,3-trifluoro-2-hydroxypropyl]-2,4-dihydro-3H-1,2,4-triazol-3-one], for which the results for the IC50 on human V2 receptor and at human V1a receptor were 0.84 nM and 0.71 nM, respectively. The “ratio IC50 hV2/hV1a” value at human V1a receptor stood at 1.2.
Consider `CC(F)(F)c1nc(Cn2nc(-c3ccc(Cl)cc3)n(C[C@H](O)C(F)(F)F)c2=O)nn1-c1ccccc1C(F)(F)F` [Example 60, 5-(4-Chlorophenyl)-2-({5-(1,1-difluoroethyl)-1-[2-(trifluoromethyl)phenyl]-1H-1,2,4-triazol-3-yl}methyl)-4-[(2S)-3,3,3-trifluoro-2-hydroxypropyl]-2,4-dihydro-3H-1,2,4-triazol-3-one], for which, on human V2 receptor, the IC50 amounted to 11.6 nM. Moreover, at human V1a receptor, the IC50 was found to be 1.73 nM and the “ratio IC50 hV2/hV1a” value worked out at 6.7.
Take `CC(F)c1nc(Cn2nc(-c3ccc(Cl)cc3)n(C[C@H](O)C(F)(F)F)c2=O)nn1-c1ncccc1Cl` (mixture of isomers) [Example 19, 5-(4-Chlorophenyl)-2-({1-(3-chloropyridin-2-yl)-5-[1-fluoroethyl]-1H-1,2,4-triazol-3-yl}methyl)-4-[(2S)-3,3,3-trifluoro-2-hydroxypropyl]-2,4-dihydro-3H-1,2,4-triazol-3-one]: at human V2 receptor, the IC50 is 14.7 nM. Also, at human V1a receptor, the IC50 was 2.85 nM and the “ratio IC50 hV2/hV1a” value amounted to 5.2.
For `CC(F)c1nc(Cn2nc(-c3ccc(Cl)cc3)n(C[C@H](O)C(F)(F)F)c2=O)nn1-c1cnccc1Cl` (mixture of isomers) [Example 4, 5-(4-Chlorophenyl)-2-({1-(4-chloropyridin-3-yl)-5-[1-fluoroethyl]-1H-1,2,4-triazol-3-yl}methyl)-4-[(2S)-3,3,3-trifluoro-2-hydroxypropyl]-2,4-dihydro-3H-1,2,4-triazol-3-one], the IC50 on human V2 receptor stood at 18.5 nM. At human V1a receptor, the IC50 worked out at 2.05 nM and the “ratio IC50 hV2/hV1a” value was 9.0.
The like results for `CC(F)c1nc(Cn2nc(-c3ccc(Cl)cc3)n(C[C@H](O)C(F)(F)F)c2=O)nn1-c1ncccc1Cl` (single isomer, unassigned) [Example 20] were, in that order, 5.95 nM, 1.35 nM and 4.4.
`CC(F)c1nc(Cn2nc(-c3ccc(Cl)cc3)n(C[C@H](O)C(F)(F)F)c2=O)nn1-c1c(Cl)cccc1Cl` (mixture of isomers) [Example 43, 5-(4-Chlorophenyl)-2-({1-(2,6-dichlorophenyl)-5-[1-fluoroethyl]-1H-1,2,4-triazol-3-yl}methyl)-4-[(2S)-3,3,3-trifluoro-2-hydroxypropyl]-2,4-dihydro-3H-1,2,4-triazol-3-one]: the IC50 at human V2 receptor turned out to be 3.1 nM. For the same compound, at human V1a receptor, the IC50 was found to be 2.05 nM and the “ratio IC50 hV2/hV1a” value is given as 1.5.
For `CC(F)(F)c1nc(Cn2nc(-c3ccc(Cl)cc3)n(C[C@H](O)C(F)(F)F)c2=O)nn1-c1c(F)cccc1Cl` [Example 69, 2-{[1-(2-Chloro-6-fluorophenyl)-5-(1,1-difluoroethyl)-1H-1,2,4-triazol-3-yl]methyl}-5-(4-chlorophenyl)-4-[(2S)-3,3,3-trifluoro-2-hydroxypropyl]-2,4-dihydro-3H-1,2,4-triazol-3-one], the IC50 at human V2 receptor amounted to 6.9 nM. In addition, at human V1a receptor, the IC50 is 2.95 nM and the “ratio IC50 hV2/hV1a” value is given as 2.3.
Taken in the same sequence, the figures for `CC(F)c1nc(Cn2nc(-c3ccc(Cl)cc3)n(C[C@H](O)C(F)(F)F)c2=O)nn1-c1ccccc1OC(F)F` (single isomer, unassigned) [Example 32] were 8.9 nM, 2.4 nM and 3.7.
